Legend:
Type in all cases: in vivo
[1] = system: windgrass (Apera spica-venti); test: Test B postemergence plant response; details: for Plant response rating, Windgrass: Postemergence
Procedure, shortened: (§1)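 Visual injury score from 0 (none) to 100 (complete control) versus controls, taken 13 to 15 days after treatment in the greenhouse; chemicals applied postemergence, as formulated, to plants of 1- to 4-leaf stage (2 to 18 cm tall); dash denotes no test result.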

[2] = system: winter barley (Hordeum vulgare); test: Test B postemergence plant response; details: for Plant response rating, Barley: Postemergence
Procedure, shortened: as §1

[3] = system: chickweed (Stellaria media); test: Test B postemergence plant response; details: for Plant response rating, Chickweed: Postemergence
Procedure, shortened: as §1

[4] = system: Russian thistle (Salsola iberica); test: Test B pre-/postemergence plant response; details: Preemergence
Procedure, shortened: (§2)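 Visual scoring from 0 (no effect) to 100 (complete control) against untreated controls was done 13 to 15 days after greenhouse treatment. Chemicals were formulated in a surfactant-containing non-phytotoxic solvent and applied to soil preemergence or to 1- to 4-leaf (2-18 cm) plants postemergence.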

[5] = system: surinam grass (Brachiaria decumbens); test: Test B pre-/postemergence plant response; details: for Surinam Grass plant response rating: 8 g ai/ha
Procedure, shortened: as §2

[6] = system: green foxtail (Setaria viridis); test: Test B pre-/postemergence plant response; details: for Foxtail, Green plant response rating: 8 g ai/ha
Procedure, shortened: as §2

[7] = system: goosegrass (Eleusine indica); test: Test B pre-/postemergence plant response; details: for Goosegrass plant response rating: 8 g ai/ha
Procedure, shortened: as §2

[8] = system: morningglory (Ipomoea coccinea); test: Test B pre-/postemergence plant response; details: for Morningglory plant response rating: 8 g ai/ha
Procedure, shortened: as §2

[9] = system: Italian ryegrass (Lolium multiflorum); test: Test B pre-/postemergence plant response; details: for Ryegrass, Italian plant response rating: 8 g ai/ha
Procedure, shortened: as §2

[10] = system: large crabgrass (Digitaria sanguinalis); test: Test B pre-/postemergence plant response; details: for Crabgrass, Large plant response rating: 8 g ai/ha
Procedure, shortened: as §2

[11] = system: johnsongrass (Sorghum halepense); test: Test B pre-/postemergence plant response; details: for Johnsongrass plant response rating: 8 g ai/ha
Procedure, shortened: as §2

[12] = system: eastern black (E.B.) nightshade (Solanum ptycanthum); test: Test B pre-/postemergence plant response; details: Preemergence
Procedure, shortened: as §2

soybean (Glycine max) = test: Test B pre-/postemergence plant response
Procedure, shortened: as §2

[13] = system: wheat (Triticum aestivum); test: Test B pre-/postemergence plant response; details: for Wheat plant response rating: 8 g ai/ha
Procedure, shortened: as §2

[14] = system: cocklebur (Xanthium strumarium); test: Test B pre-/postemergence plant response; details: for Cocklebur plant response rating: 8 g ai/ha
Procedure, shortened: as §2

[15] = system: bermudagrass (Cynodon dactylon); test: Test B pre-/postemergence plant response; details: for Bermudagrass plant response rating: 8 g ai/ha
Procedure, shortened: as §2

[16] = 8 g ai/ha, postemergence, 0-100 scale
[17] = 31 g ai/ha, scale 0 to 100, 0 no effect, 100 complete control
[18] = 16 g ai/ha, scale 0 to 100 (0 no effect, 100 complete control)
[19] = 31 g ai/ha, 0 to 100 scale, 0 no effect, 100 complete control
[20] = Postemergence, 16 g ai/ha, scale 0 to 100
[21] = Postemergence, 31 g ai/ha, scale 0 to 100, 0 no effect, 100 complete control
[22] = Postemergence, 62 g ai/ha, scale 0 to 100
[23] = Preemergence, 16 g ai/ha, scale 0 to 100 (0 no effect, 100 complete control)
[24] = Preemergence, 62 g ai/ha, scale 0 to 100
[25] = Preemergence, 31 g ai/ha, 0 to 100 scale, 0 no effect, 100 complete control

CCc1cc(-c2ccc(Cl)cc2)nn1-c1c(O)cnn(C)c1=O [Compound 21]
90: Ryegrass, Italian plant response rating ([9]; Preemergence, scale 0 to 100) | Plant response rating, Johnsongrass [11, 20] | Plant response rating, Johnsongrass [11, 21] | Plant response rating, Johnsongrass [11, 25] | Plant response rating, Wheat [13, 21]
80: Plant response rating, Goosegrass [7, 20] | Plant response rating, Goosegrass [7, 23] | Plant response rating, Crabgrass, Large [10, 23] | Plant response rating, Crabgrass, Large [10, 25] | Plant response rating, Bermudagrass [15, 21] | Plant response rating, Bermudagrass [15, 23]
0: Barley plant response rating [2, 16] | Chickweed plant response rating [3, 16] | Plant response rating, Chickweed ([3]; 16 g ai/ha, scale 0 to 100) | Plant response rating, Chickweed [3, 17] | Plant response rating, Chickweed ([3]; 62 g ai/ha, scale 0 to 100) | Plant response rating, Russian Thistle [4, 18] | Plant response rating, Russian Thistle [4, 19] | Plant response rating, Russian Thistle ([4]; 62 g ai/ha, scale 0 to 100) | Russian Thistle plant response rating ([4]; 8 g ai/ha, scale 0 to 100) | Morningglory plant response rating ([8]; postemergence, 0-100 scale) | Plant response rating, Morningglory [8, 20] | Plant response rating, Morningglory [8, 21] | Plant response rating, Morningglory [8, 22] | Plant response rating, Morningglory [8, 23] | Plant response rating, Morningglory [8, 25] | Plant response rating, Morningglory [8, 24] | Morningglory plant response rating ([8]; Preemergence, scale 0 to 100) | Crabgrass, Large plant response rating ([10]; Preemergence, scale 0 to 100) | Johnsongrass plant response rating ([11]; Preemergence, scale 0 to 100) | Plant response rating, Nightshade, E. B. [12, 18] | Plant response rating, Nightshade, E. B. [12, 19] | Nightshade, E. B. plant response rating ([12]; 8 g ai/ha, scale 0 to 100) | Soybean plant response rating (soybean (Glycine max); [16]) | Plant response rating, Soybean (soybean (Glycine max); [20]) | Plant response rating, Soybean (soybean (Glycine max); [21]) | Plant response rating, Soybean (soybean (Glycine max); [25]) | Wheat plant response rating ([13]; Preemergence, scale 0 to 100) | Cocklebur plant response rating ([14]; postemergence, 0-100 scale) | Plant response rating, Cocklebur [14, 20] | Plant response rating, Cocklebur [14, 21] | Plant response rating, Cocklebur [14, 22] | Plant response rating, Cocklebur [14, 23] | Plant response rating, Cocklebur [14, 25] | Plant response rating, Cocklebur [14, 24] | Cocklebur plant response rating ([14]; Preemergence, scale 0 to 100)
65: Goosegrass plant response rating ([7]; postemergence, 0-100 scale)
85: Plant response rating, Johnsongrass [11, 23] | Plant response rating, Wheat [13, 20] | Plant response rating, Wheat [13, 25] | Plant response rating, Bermudagrass [15, 25]
50: Windgrass plant response rating [1, 16] | Wheat plant response rating ([13]; postemergence, 0-100 scale)
40: Bermudagrass plant response rating ([15]; postemergence, 0-100 scale)
100: Plant response rating, Windgrass [1, 17] | Plant response rating, Windgrass ([1]; 62 g ai/ha, scale 0 to 100) | Plant response rating, Barley ([2]; 62 g ai/ha, scale 0 to 100) | Surinam Grass plant response rating ([5]; postemergence, 0-100 scale) | Plant response rating, Surinam Grass [5, 20] | Plant response rating, Surinam Grass [5, 21] | Plant response rating, Surinam Grass [5, 22] | Plant response rating, Surinam Grass [5, 23] | Plant response rating, Surinam Grass [5, 24] | Plant response rating, Foxtail, Green [6, 20] | Plant response rating, Foxtail, Green [6, 21] | Plant response rating, Foxtail, Green [6, 22] | Plant response rating, Foxtail, Green [6, 23] | Plant response rating, Foxtail, Green [6, 25] | Plant response rating, Foxtail, Green [6, 24] | Foxtail, Green plant response rating ([6]; Preemergence, scale 0 to 100) | Plant response rating, Goosegrass [7, 22] | Plant response rating, Goosegrass [7, 24] | Plant response rating, Ryegrass, Italian [9, 20] | Plant response rating, Ryegrass, Italian [9, 21] | Plant response rating, Ryegrass, Italian [9, 22] | Plant response rating, Ryegrass, Italian [9, 23] | Plant response rating, Ryegrass, Italian [9, 24] | Plant response rating, Crabgrass, Large [10, 20] | Plant response rating, Crabgrass, Large [10, 21] | Plant response rating, Crabgrass, Large [10, 22] | Plant response rating, Crabgrass, Large [10, 24] | Plant response rating, Johnsongrass [11, 22] | Plant response rating, Johnsongrass [11, 24] | Plant response rating, Wheat [13, 22] | Plant response rating, Bermudagrass [15, 22] | Plant response rating, Bermudagrass [15, 24]
10: Goosegrass plant response rating ([7]; Preemergence, scale 0 to 100) | Plant response rating, Soybean (soybean (Glycine max); [22])
30: Plant response rating, Wheat [13, 23]
95: Foxtail, Green plant response rating ([6]; postemergence, 0-100 scale) | Plant response rating, Goosegrass [7, 21] | Plant response rating, Goosegrass [7, 25] | Crabgrass, Large plant response rating ([10]; postemergence, 0-100 scale) | Plant response rating, Wheat [13, 24]
98: Plant response rating, Windgrass ([1]; 16 g ai/ha, scale 0 to 100) | Surinam Grass plant response rating ([5]; Preemergence, scale 0 to 100) | Ryegrass, Italian plant response rating ([9]; postemergence, 0-100 scale)
60: Plant response rating, Barley ([2]; 16 g ai/ha, scale 0 to 100, 0 no effect, 100 complete control) | Johnsongrass plant response rating ([11]; postemergence, 0-100 scale) | Plant response rating, Bermudagrass [15, 20] | Bermudagrass plant response rating ([15]; Preemergence, scale 0 to 100 (0 no effect, 100 complete control))

Source: patent US20100267561A1, “HERBICIDAL PYRIDAZINONE DERIVATIVES” (priority 2007, published 2010)
